Reference: patent EP1800684A1, “Novel alkyl phospholipid derivatives and uses thereof” (Zentaris GmbH, priority 2005, dated 2007)
In brackets after ≈: the same amount, converted by molar mass.

How the values were obtained:
Assay type in all cases: cell-based
[1] = system: Candida albicans (strain TS3); assay: Anti-fungal susceptibility test (microdilution), fungus C; conditions: Candida albicans, no visible growth after 48 hours at 35° C, read-out: MIC
Experimental: (§1) The antifungal activities of the test compounds (compounds of the invention and known prior art compounds) were measured according to standard microdilution methods (Cryptococcus/Aspergillus: Ghannoum et al., Journal of Clinical Microbiology 1992, 30 (11): 2881-2886; Candida: Reference method for broth dilution susceptibility testing of yeast: proposed standard, NCCLS document M27-P, National Committee for Clinical Laboratory Standards 1992, Villanova, Pa).
(§2) A serial dilution series starting from 64 µg/mL test compound per well down to 0.125 µg/mL test compound per well was applied for each test compound on each fungus. The MIC of each compound was defined as the concentration which produces no visible growth after 48 hours (Candida) and 72 hours (Cryptococcus, Aspergillus) of culture at 35° C.
(§3) The following fungi were assessed: • A) Candida albicans (ATCC 10231) • B) Candida albicans (ATCC 90028) • C) Candida albicans (strain TS3, Shrikantha et al., Journal of Bacteriology 2000, 182(6):1580-1591) • D) Candida parapsilosis (ATCC 22019) • E) Cryptocoocus neoformans (ATCC 90112) • F) Cryptocoocus neoformans (strain H99; Ganendren et al., Antimicrobial Agents and Chemotherapy, 2004, 48(5):1561-1569) • G) Cryptocoocus gattii (ATCC 32608) • H) Aspergillus fumigatus (ATCC 204305) • I) Aspergillus fumigatus (strain 322-384)

[2] = system: Cryptocoocus neoformans (ATCC 90112); assay: Anti-fungal susceptibility test (microdilution), fungus E; conditions: fungus E; no visible growth after 72 hours at 35° C; read-out: MIC
Experimental: as §1, §2, §3

[3] = system: Aspergillus fumigatus (strain 322-384); assay: Anti-fungal susceptibility test (microdilution), fungus I; conditions: Aspergillus fumigatus, no visible growth after 72 hours at 35° C, read-out: MIC
Experimental: as §1, §2, §3

[4] = system: Aspergillus fumigatus (ATCC 204305); assay: Anti-fungal susceptibility test (microdilution), fungus H; conditions: Aspergillus fumigatus, ATCC204305, no visible growth after 72 hours at 35° C, read-out: MIC
Experimental: as §1, §2, §3

[5] = system: KB/HeLa (ATCC CCL17, human cervix carcinoma); assay: XTT cytotoxicity assay, KB/HeLa cells; conditions: 48 h, 2 days of continuous drug exposure
Experimental: Human tumor cell lines KB/HeLa (ATCC CCL17, human cervix carcinoma), PC3 (ATCC CRL1435, human prostate carcinoma) and RKOp21 (human colon adenocarcinoma) cells were used in an automated XTT screening assay for the assessment of cytotoxicity.
The XTT assay quantifies cellular metabolic activity which correlates with cell viability and cell number. Test compounds (selected compounds of the invention and known substances as controls) are dissolved in culture medium at 600µM and added to the tumor cells in 10 different concentrations in a semi-logarithmic fashion starting from 100 µM as highest concentration.
48h later cellular metabolic activity of cells treated with test compounds is quantified by measurement of the absorbance at 490nm (conversion of XTT dye) in comparison to untreated control cells (100% viability).
KB/HeLa and PC3 cells were cultivated in RPMI medium supplemented with 10% heat inactivated fetal calf serum, 2 mM glutamine, 100 U/ml penicillin, and 100 µg/ml streptomycin. RKOp21 cells were grown in DMEM supplemented with 10% heat inactivated fetal calf serum, 2 mM glutamine, 100 U/ml penicillin, and 100 µg/ml streptomycin. All cells were cultured at 37°C in 5% CO2 humidified air.
On the first day of the experiment cells were harvested from exponential phase cultures by trypsination, counted and plated into 96 well flat-bottom micro titer plates depending on the cell line as listed below:
After a 24h recovery to allow the cells to resume exponential growth, the test compounds were diluted immediately prior to use and transferred in 25µl volume to the wells.
Following 2 days of continuous drug exposure 50µl of freshly prepared XTT-PMS solution (2% […] PMS in PBS + 98% 1 mg/ml XTT in RPMI 1640 without phenol red) was added to the wells. To measure the proportion of living cells, the cells were incubated for 3 h with XTT-PMS reagent at 37°C, 5% CO2, humidified atmosphere allowing to form the formazan salt. The amount of soluble formazan salt produced by cellular reduction of XTT is quantified by measuring the absorbance at 490nm using the Biomek® 2000 ELISA plate reader.
%-inhibition (cytotoxicity) of each test compound was calculated in relation to untreated control cells. Inhibition curves were generated and IC50 values calculated by using GraphPad Prism.

[6] = system: Cryptocoocus gattii (ATCC 32608); assay: Anti-fungal susceptibility test (microdilution), fungus G; conditions: fungus G; no visible growth after 72 hours at 35° C; read-out: MIC
Experimental: as §1, §2, §3

[7] = system: Plasmodium falciparum (strain K1); assay: In vitro drug susceptibility assay, protozoon C (3[H]-hypoxanthine method)
Experimental: Plasmodium falciparum strain K1 and strain 3D7 parasites were cultured according to Trager W and Jensen JB (Science 1976, 193: 673-675). In vitro drug susceptibility assays with the test compounds were carried out according to Korsinczky M et al. (Antimicrobial agents and chemotherapy 2000, 44(8): 2100-2108) and Fivelman QL et al. (Antimicrobial agents and chemotherapy 2004, 48(11): 4097-4102) using a ^3[H]-hypoxanthine radioisotope method. ED50 values were calculated with Msxlfit (IDBS).
The following protozoa were assessed: • A) Trypanosoma cruzi (Tulahuan-LACZ amstigotes in PEM, Lorente SO et al., Antimicrobial agents and chemotherapy 2004, 48(8): 2937-2950; Buckner et al., Infection and Immunity 1999, 67(1): 403-409; Buckner et al., Antimicrobial Agents and Chemotherapy 1996, 40(11): 2592-2597) • B) Trypanosoma brucei rhodesiense (strain STIB900, Lorente SO et al., Antimicrobial agents and chemotherapy 2004, 48(8): 2937-2950; Habtemariam S, BMC Pharmacology 2003, 3:6) • C) Plasmodium falciparum (strain K1, Korsinczky M et al., Antimicrobial agents and chemotherapy 2000, 44(8): 2100-2108; Thaitong S and Beale GH, Trans. R. Soc. Trop. Med. Hyg. 1981, 75: 271-273; Trager W and Jensen JB, Science 1976, 193: 673-675) • D) Plasmodium falciparum (strain 3D7, Mu et al., PLoS Biology 2005, 3(10): e335)

## CCCCCCCCCCCCCCCCOP(=O)([O-])OCC[N+]1(C)CCCCC1 [Compound 2, Phosphoric acid 2-(1-methyl-piperidin-1-yl)-ethyl ester hexadecyl ester]
[1]
  MIC: 1.5 µg/mL (≈ 3.35 µM)
[2]
  MIC: 1.5 µg/mL (≈ 3.35 µM)
[3]
  MIC: 2 µg/mL (≈ 4.47 µM)
[4]
  MIC: 2 µg/mL (≈ 4.47 µM)
[5]
  IC50: 5.02 µM
[6]
  MIC: 0.75 µg/mL (≈ 1.68 µM)
[7]
  ED50 (µg/mL): 19,36 µg/mL
